{
  "source": "patent US20170014375A1",
  "about": "“PHARMACEUTICAL COMPOSITION COMPRISING EFFECTIVE DOSE OF POMIFERIN FOR TREATING CANCERS” (Macau University of Science and Technology, priority 2015, published 2017)",
  "key": {"HeLa cancer cells": {"system": "HeLa cancer cells", "assay": "Western blot of autophagic marker LC3-II conversion", "format": "cell-based, human", "settings": "0-15 μM, FIG. 1A", "method": "After pomiferin treatments in the presence or absence of lysosomal inhibitor 50 nM of Bafilomycin A1 or autophagy inhibitor 5 mM 3-MA, HeLa cancer cells are harvested and lysed in RIPA buffer (Cell Signaling Technologies Inc., Beverly, Mass.). The cell lysates are then resolved by SDS-PAGE. After electrophoresis, the proteins from SDS-PAGE are transferred to nitrocellulose membrane which is then blocked with 5% non-fat dried milk for 60 minutes. The membrane is then incubated with LC3 primary antibodies (1:1000) in TBST overnight at 4° C. After that, the membrane is further incubated with HRP-conjugated secondary antibodies for 60 minutes. Finally, protein bands are visualized by using the ECL Western Blotting Detection Reagents (Invitrogen, Paisley, Scotland, UK)."}, "HeLa cells": {"system": "HeLa cells", "assay": "Cytosolic calcium detection by flow cytometry (Fluo-3)", "format": "cell-based, human", "settings": "10 μM, 10 min to 4 h, FIG. 4A", "method": "Changes in intracellular free calcium are measured by a fluorescent dye, Fluo-3, as described previously^21. Briefly, HeLa cells are washed twice with MEM medium after pomiferin treatment (10 μM) for various times (10 min, 0.5 h, 1 h, 2 h, 4 h). Then cell suspensions are incubated with 5 μM Fluo-3 at 37° C. for 30 min. Then the cells are washed twice with HBSS. After re-suspended cell samples are subjected to FACS analysis, at least 10,000 events are analyzed."}, "[1]": {"system": "AMPK-mTOR signaling in HeLa cancer cells", "assay": "Western blot of mTOR signaling marker proteins (P-AMPK, P-p70S6K)", "format": "cell-based, human", "settings": "FIG. 3A", "method": "HeLa cancer cells treated with indicated time and concentrations of pomiferin are harvested and lysed in RIPA buffer (Cell Signaling). The cell lysates are then resolved by SDS-PAGE. After electrophoresis, the proteins from SDS-PAGE are transferred to nitrocellulose membrane which is then blocked with 5% non-fat dried milk for 60 minutes. The membrane is then incubated with P-p70S6K, p70S6K, P-AMPK, AMPK and actin primary antibodies (1:1000) in TBST overnight at 4° C. respectively. After that, the membrane is further incubated with HRP-conjugated secondary antibodies for 60 minutes. Finally, protein bands are visualized by using the ECL Western Blotting Detection Reagents (Invitrogen)."}, "Bax-Bak DKO MEFs": {"system": "Bax-Bak DKO MEFs", "assay": "Annexin V/PI flow cytometry cell death, Bax-Bak DKO MEFs", "format": "cell-based, mouse", "settings": "24 h", "method": "Cell death is measured using an annexin V staining kit (BD Biosciences, San Jose, Calif., USA). Briefly, Bax-Bak wild-type and Bax-Bak DKO MEFs are treated with the 5 μM pomiferin for 24 h. Cells are then harvested and analysed by multiparametric flow cytometry using FITC-Annexin V and Propidium iodide staining (BD Biosciences, San Jose, Calif., USA) according to the manufacturer's instructions. Flow cytometry is then carried out using a FACSCalibur flow cytometer (BD Biosciences, San Jose, Calif., USA). Data acquisition and analysis is performed with CellQuest (BD Biosciences, San Jose, Calif., USA). Data are obtained from three independent experiments. Cell death is measured using an annexin V staining kit (BD Biosciences, San Jose, Calif., USA). Briefly, Bax-Bak DKO MEFs are treated with the 5 μM pomiferin in the presence or absence of 5 mM autophagic inhibitor 3-MA for 24 h. Cells are then harvested and analysed by multiparametric flow cytometry using FITC-Annexin V and Propidium iodide staining (BD Biosciences, San Jose, Calif., USA) according to the manufacturer's instructions. Flow cytometry is then carried out using a FACSCalibur flow cytometer (BD Biosciences, San Jose, Calif., USA). Data acquisition and analysis is performed with CellQuest (BD Biosciences, San Jose, Calif., USA). Data are obtained from three independent experiments."}, "[2]": {"system": "H1299 (human lung cancer) cells", "assay": "MTT cytotoxicity assay, H1299", "format": "cell-based", "settings": "NCI-H1299, 72 h, 3 days, read-out: Means of IC50", "method": "Pomiferin is dissolved in DMSO at a final concentration of 100 mmol/L and stored at −20° C. Cytotoxicity is assessed using the 3-(4,5-dimethylthiazol-2-yl)-2,5-diphenyltetrazolium bromide assay. 4000-8000 HeLa (human cervical cancer), MCF-7 (human breast cancer), HepG2 and Hep3B (human liver cancer), H1299 and A549 (human lung cancer), LNCap (human prostate cancer) and LLC-1 (mouse Lewis lung carcinoma) cells are seeded on 96-well plates per well. After overnight pre-incubation, the cells are exposed to different concentrations of pomiferin ([…]) for 3 days. Subsequently, 10 μL of MTT reagents is added to each well and incubated at 37° C. for 4 hours followed by the addition of 100 μL solubilization buffer (10% SDS in 0.01 mol/L HCl) and overnight incubation. Absorbance at 585 nm is determined from each well the next day. The percentage of cell viability is calculated using the following formula: Cell viability (%)=Cells number treated/Cells number DMSO control×100. Data are obtained from three independent experiments."}, "Ca2+ ATPase (SERCA1A)": {"biological_target": "T1, Ca2+ ATPase (SERCA1A) (Oryctolagus cuniculus, UniProt P04191)", "T1 construct": "(SERCA1A) is prepared from female rabbit hind leg muscle; from tissue; host or cells: female rabbit hind leg (skeletal) muscle, sarcoplasmic reticulum membranes", "T1 sequence (P04191 1-994 isoform P04191-2)": "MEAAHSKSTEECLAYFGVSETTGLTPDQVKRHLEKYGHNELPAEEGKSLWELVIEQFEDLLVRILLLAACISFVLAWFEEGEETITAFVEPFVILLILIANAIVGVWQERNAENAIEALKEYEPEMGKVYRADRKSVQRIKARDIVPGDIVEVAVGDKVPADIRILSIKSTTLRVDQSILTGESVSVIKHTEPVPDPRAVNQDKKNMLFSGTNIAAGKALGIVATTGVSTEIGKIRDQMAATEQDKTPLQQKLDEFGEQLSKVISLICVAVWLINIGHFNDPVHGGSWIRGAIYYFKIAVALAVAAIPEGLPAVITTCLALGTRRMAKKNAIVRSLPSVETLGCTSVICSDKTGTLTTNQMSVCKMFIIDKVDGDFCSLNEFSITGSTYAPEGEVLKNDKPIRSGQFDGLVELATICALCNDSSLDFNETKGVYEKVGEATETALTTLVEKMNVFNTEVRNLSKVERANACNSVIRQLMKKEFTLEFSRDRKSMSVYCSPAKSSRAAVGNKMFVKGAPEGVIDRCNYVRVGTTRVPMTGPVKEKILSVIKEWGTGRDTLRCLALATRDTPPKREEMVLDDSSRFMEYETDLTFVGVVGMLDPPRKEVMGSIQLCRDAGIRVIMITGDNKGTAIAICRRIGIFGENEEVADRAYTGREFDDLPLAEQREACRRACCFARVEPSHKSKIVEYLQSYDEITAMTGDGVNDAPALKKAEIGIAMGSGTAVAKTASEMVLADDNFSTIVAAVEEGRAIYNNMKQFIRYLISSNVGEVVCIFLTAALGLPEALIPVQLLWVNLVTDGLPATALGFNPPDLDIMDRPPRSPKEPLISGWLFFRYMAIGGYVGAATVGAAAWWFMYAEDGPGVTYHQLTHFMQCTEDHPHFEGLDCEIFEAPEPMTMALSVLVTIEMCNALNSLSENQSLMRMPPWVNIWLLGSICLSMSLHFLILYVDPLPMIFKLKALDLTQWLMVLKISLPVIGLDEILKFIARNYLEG", "assay": "Measurement of SERCA activity (enzyme-coupled ATPase assay)", "format": "biochemical", "settings": "rabbit skeletal muscle SR membranes; FIG. 5B", "method": "Purified Ca^2+ ATPase (SERCA1A) is prepared from female rabbit hind leg muscle^27. ATPase activity is determined using the enzyme-coupled method utilizing pyruvate kinase and lactate dehydrogenase as previously described in Michelangeli et al. (1990). All SERCA inhibition data are fitted to the allosteric dose versus effect equation using Fig P (Biosoft):\nActivity=minimum activity+(maximum activity−minimum activity)/(1+([I]/IC50)P)."}, "[3]": {"system": "Atg7 wild-type (Atg7+/+) mouse embryonic fibroblasts", "assay": "Annexin V/PI flow cytometry cell death, Atg7+/+ MEFs", "format": "cell-based", "settings": "2 μM, 24 h, FIG. 6B", "method": "Cell viability is measured using an annexin V staining kit (BD Biosciences, San Jose, Calif., USA). Briefly, Atg7 wild-type (Atg7+/+ or Atg7-wt) and Atg7 deficient (Atg7−/− or Atg7-ko) mouse embryonic fibroblasts (MEFs) are treated with the 2 μM pomiferin for 24 h. Cells are then harvested and analysed by multiparametric flow cytometry using FITC-Annexin V and Propidium iodide staining (BD Biosciences, San Jose, Calif., USA) according to the manufacturer's instructions. Flow cytometry is then carried out using a FACSCalibur flow cytometer (BD Biosciences, San Jose, Calif., USA). Data acquisition and analysis is performed with CellQuest (BD Biosciences, San Jose, Calif., USA). Data are obtained from three independent experiments."}},
  "data": [
    {"smiles": "CC(C)=CCc1c2c(c3occ(-c4ccc(O)c(O)c4)c(=O)c3c1O)C=CC(C)(C)O2", "note": "[pomiferin]", "values": [
      {"measurement": "autophagic marker LC3-II conversion", "setting": "HeLa cancer cells", "value": "induced"},
      {"measurement": "cytosolic calcium level", "setting": "HeLa cells", "value": "increase the cytosolic calcium level in a time dependent manner"},
      {"measurement": "p70S6K phosphorylation (mTOR downstream)", "setting": "[1]", "value": "concomitant reduction"},
      {"measurement": "phosphorylation of AMPK", "setting": "[1]", "value": "activate the phosphorylation of AMPK in a time dependent manner"},
      {"measurement": "cell death (in words)", "setting": "Bax-Bak DKO MEFs; 5 μM pomiferin alone, Bax-Bak DKO cells, FIG. 8B", "value": "significantly induced cell death"},
      {"measurement": "cell death", "setting": "Bax-Bak DKO MEFs; 5 μM, annexin V flow cytometry, Bax-Bak DKO MEFs", "value": "~80", "unit": "%"},
      {"measurement": "IC50", "setting": "[2]", "value": 16.3, "unit": "µM"},
      {"measurement": "SERCA1A pump inhibition", "setting": "Ca2+ ATPase (SERCA1A)", "value": "inhibited by pomiferin in a dose-dependent manner"},
      {"measurement": "cell death (in words)", "setting": "[3]", "value": "markedly induce cell death"}
    ]}
  ]
}
